Test results reported in US11396499B2, “Lysosomal acid lipase assay” (University of Washington, priority 2018, dated 2022).
Several values for one entry are separate records, joined by “and”; a condition that tells them apart may be missing. Equal values may be shown once.

What was measured:
[1] = target: T1, lysosomal acid lipase (LAL) (Homo sapiens, UniProt P38571); assay: LAL assay development: replacement of cardiolipin by phospholipids and of Triton X-100 by detergent; assay type: biochemical; settings: for change of LAL activity over that measured with cardiolipin: phospholipid tested individually at 0.1 mmol/L as replacement for cardiolipin
T1 construct: from tissue; host or cells: dried blood spots (DBS) from healthy adults, healthy children and LAL-deficient patients
T1 sequence (P38571 77-399): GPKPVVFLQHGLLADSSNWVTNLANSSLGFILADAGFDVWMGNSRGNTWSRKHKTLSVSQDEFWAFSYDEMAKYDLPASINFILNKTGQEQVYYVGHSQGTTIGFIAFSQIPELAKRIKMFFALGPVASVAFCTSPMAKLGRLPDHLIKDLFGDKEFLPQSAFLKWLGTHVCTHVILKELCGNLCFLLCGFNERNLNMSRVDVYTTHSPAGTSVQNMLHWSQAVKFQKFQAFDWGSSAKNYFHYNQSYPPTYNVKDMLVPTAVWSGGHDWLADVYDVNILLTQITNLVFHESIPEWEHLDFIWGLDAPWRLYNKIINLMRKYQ
Protocol: A variety of phospholipids were evaluated as replacements for cardiolipin, which was used in the original LAL assay described by Hamilton et al. (Clin Chim Acta 2012; 413:1207-10). The following phospholipids were tested individually at 0.1 mmol/L: 1,2-dioleoyl-phosphatidylethanolamine, 1,2-dioleoyl-phosphatidylmethanol, 1,2-dioleoyl-phosphatidylcholine, 1,2-dioleoyl-phosphatidylserine, brain phosphatidylethanolamine, 1,2-heptadecyl-phosphatidylcholine, and 1,2-lauryl-phosphatidylcholine.
The original LAL assay described by Hamilton et al. (Clin Chim Acta 2012; 413:1207-10) used Triton X-100 as the detergent, which was replaced this with sodium taurodeoxycholate because this detergent largely remains in the aqueous phase following liquid-liquid extraction with ethyl acetate (thus minimizing injection of large amounts of detergent onto the UPLC column). […] Thus, 2.5 mmol/L was chosen for all subsequent studies.

[2] = system: lysosomal acid lipase (LAL); assay: UPLC-MS/MS LAL assay in dried blood spots (DBS) with substrate P-PMHC; assay type: biochemical, human
Protocol: Assay mixture was prepared by combining 9 volumes of 0.1 mol/L sodium acetate buffer (made by adding reagent grade NaOH to 0.1 mol/L reagent-grade acetic acid in water), pH 4.5, containing 2.5 mmol/L sodium taurodeoxycholate hydrate (Sigma, 287245) with 1 volume of 0.5% (w/v) bovine heart cardiolipin in ethanol (Sigma, C1649) containing 3 mmol/L substrate palmitoyl 4-propyl-8-methyl-7-hydroxycoumarin (P-PMHC) and 50 μmol/L carbon-13-labeled 4-propyl-8-methyl-7-hydroxycoumarin (internal standard). The latter was prepared by mixing solid substrate P-PMHC with internal standard solution in absolute ethanol, removing solvent in a centrifugal concentrator under vacuum (or with a jet of nitrogen), and then mixing with commercial cardiolipin/ethanol solution. This ethanol stock could be stored at −20° C. for several months (avoid>2-3 freeze-thaw cycles), and the aqueous buffer could be stored at 4° C. for several months. This was based on no change in assay results when new and stored solutions were used. Assay mixture was made fresh before each use.
To a 3-mm punch from a DBS in a 1.5-mL polypropylene Eppendorf tube was added 200 μL of purified water (Milli-Q, EMD Millipore). The tubes were shaken on an orbital platform shaker for 1 h at ambient temperature. The tube of DBS extract was mixed briefly on a vortex-type mixer, and a 10 μL aliquot was added to the well of a polypropylene, deep-well, 96-well plate (Costar, 3959). Assay mixture (30 μL, ambient temperature) was added to each well. The plate was centrifuged at 3000 g for 5 min at ambient temperature to ensure that all liquid was at the well bottom. The plate was sealed with a film cover (Advantage 96-well round clear Silicone/PTFE cap mat 962611). The plate was shaken at 37° C. in an incubator with orbital mixing at 400 rpm for 3 h. The reactions were quenched by addition of 80 μL of purified water (Milli-Q, EMD Millipore) followed by 400 μL of HPLC-grade ethyl acetate. The well contents were mixed by pipetting up and down approximately 10 times. The plate was centrifuged at 3000 g for 5 min at ambient temperature, and then 120 μL of the upper ethyl acetate layer was transferred to a shallow-well, 96-well polypropylene plate (Greigner, 651201). Solvent was removed at ambient temperature with a jet of nitrogen. To each well was added 200 μL of water/methanol (1:1, Fisher Optima Grade), and samples were mixed by pipetting up and down a few times. The plate was wrapped with aluminum foil and placed in the autosampler chamber at 8° C. in preparation for LC-MS/MS analysis.
Liquid chromatography was carried out using a Waters Acquity binary solvent pump system with a CSH, C18, 1.7-μm, 2.1×50-mm column (Waters, 186005296) and a CSH, C18, 1.7-μm guard column (Vanguard, 186005303). The solvent program was 99% A (70:30, water/acetonitrile, 0.1% formic acid, Fisher Optima grade)/1% B (50:50, acetonitrile/isopropanol, 0.1% formic acid) to 30% A/70% B over 1 min, then jump to 100% B and hold for 0.5 min, then to 99% A over 0.5 min (flow rate 0.8 mL/min). The total run time was 2.5 min. Mass spectrometry was carried out with a Waters Xevo TQ tandem-quadrupole instrument.

[3] = target: T1, lysosomal acid lipase (LAL); assay: Previous fluorometric LAL assay (Hamilton et al.) with palmitoyl-4MU with and without Lalistat-2 in DBS; assay type: biochemical; settings: same DBS extract, substrate palmitoyl-4MU, 10 μmol/L Lalistat-2
Text: LAL is detected in leukocytes or fibroblasts using radiometric, immunologic, or fluorescence assays (The metabolic and molecular bases of inherited disease. 8th Ed. New York (NY): McGraw-Hill; 2001. p. 3827-3387). Hamilton and colleagues recently developed a fluorometric assay to detect LAL in dried blood spots (DBS) (Hamilton et al., Clin Chim Acta 2012; 413:1207-10). The assay is based on the release of 4-methylumbelliferone from its ester with palmitic acid. However, the substrate is not specific for LAL, and the method requires two assays performed in parallel, the first in the presence of a LAL-specific covalent inactivator Lalistat-2. LAL activity is calculated from the difference in these 2 assays.
A concentration of P-PMHC in the mixture of 3 mmol/L was settled on based on a combination of high LAL activity and minimal background. The original assay described by Hamilton et al. (Clin Chim Acta 2012; 413:1207-10) used 40 μL of an aqueous extract of a 3-mm DBS added to 160 μL of assay mixture. To keep the solvent volumes for the liquid-liquid extraction to a minimum, thus avoiding long times for solvent removal, 10 μL of an aqueous extract of a 3-mm DBS punch was added to 30 μL of assay mixture.

[4] = target: T1, lysosomal acid lipase (LAL); assay: Testing the library of palmitoyl-4MU analogs as LAL substrates with DBS, with and without Lalistat-2, UPLC-MS/MS; assay type: biochemical; settings: for overall ranking in the library (activity and LAL specificity): library of 25 compounds
Protocol: The library of palmitoyl-4MU analogs was tested as LAL substrates as follows. Assay cocktail was a solution of 10:1 buffer to substrate stock, each warmed to 37° C. The substrate stock contained 3.7 mM substrate and 0.5% cardiolipin in ethanol. The buffer contained 0.15 M sodium acetate, pH 4.0, and 2.5 mM sodium taurodeoxycholate. Rehydrated blood mixture (40 mL) was combined with 10 mL of H2O or 30 mM Lalistat-2 in an Eppendorf 1.5 mL polypropylene tube and pre-incubated for 15 min at 37° C. with orbital shaking at 250 rpm. Assay cocktail (100 or 150 mL) was added and samples were incubated for 3 hr at 37° C. with orbital shaking at 250 rpm. Assay was quenched by first flash freezing to −80° C. followed by subsequent addition of 400 mL of ethyl acetate and thawing. Samples were then vortexed and centrifuged at 2700×g for 5 min. Top ethyl acetate layer (200 mL) was transferred to an autosampler plate and blown dry under nitrogen gas then resuspended in 1:1 H2O:methanol solution, and […] per well injected for analysis by UPLC-MS/MS. The LC-MS/MS data was converted into mmole of product by using an external standard of 2.5 nmole (the individual corresponding coumarins) spiked into 40 mL rehydrated blood in a 1.5 mL Eppendorf polypropylene tube incubated separately from the assay cocktail, which were quenched immediately following incubation. Additional controls included a Lalistat-2 inhibited rehydrated DBS solution incubated separately from the assay cocktail then combined and immediately quenched as a blank. Unique duplicate spiked controls and blank controls were used for each coumarin analog.

## CCCCCCCC/C=C\CCCCCCCC(=O)OC[C@H](COP(=O)([O-])OCC[N+](C)(C)C)OC(=O)CCCCCCC/C=C\CCCCCCCC [1,2-dioleoyl-phosphatidylcholine]
[1]
  change of LAL activity over that measured with cardiolipin: None of these phospholipids led to any substantial increase in LAL

## C[C@H](CCC(=O)NCCS(=O)(=O)[O-])[C@H]1CC[C@H]2[C@@H]3CC[C@@H]4C[C@H](O)CC[C@]4(C)[C@H]3C[C@H](O)[C@]12C.[Na+] [sodium taurodeoxycholate]
[1]; 2.5 mmol/L sodium taurodeoxycholate
  decrease of LAL activity on replacement of Triton X-100: 20%

## CCCCCCCCCCCCCCCCC(=O)OC[C@H](COP(=O)([O-])OCC[N+](C)(C)C)OC(=O)CCCCCCCCCCCCCCCC [1,2-heptadecyl-phosphatidylcholine]
[1]
  change of LAL activity over that measured with cardiolipin: None of these phospholipids led to any substantial increase in LAL

## O=C(Oc1nsnc1N1CCCCC1)N1CCCCC1 [Lalistat-2, reference compound]
[2]; DBS extracts from two healthy persons preincubated with 10 μmol/L Lalistat-2
  inhibition of the activity toward P-PMHC: 98%
[2]; DBS extracts preincubated with 100 μmol/L Lalistat-2
  inhibition of the activity toward P-PMHC: 99%
[3]
  total lipase activity blocked: 78%

## CCCCCCCC/C=C\CCCCCCCC(=O)OC[C@H](COP(=O)(O)OC[C@H](N)C(=O)O)OC(=O)CCCCCCC/C=C\CCCCCCCC [1,2-dioleoyl-phosphatidylserine]
[1]
  change of LAL activity over that measured with cardiolipin: None of these phospholipids led to any substantial increase in LAL

## CCCCCCCC/C=C\CCCCCCCC(=O)OCC(COP(=O)(O)OC)OC(=O)CCCCCCC/C=C\CCCCCCCC (centres unmarked) [1,2-dioleoyl-phosphatidylmethanol]
[1]
  change of LAL activity over that measured with cardiolipin: None of these phospholipids led to any substantial increase in LAL

## CCCCCCCCCCCCCCCC(=O)Oc1ccc2c(CCC)cc(=O)oc2c1C [Compound 1, 4-propyl-8-methyl-7-palmitoyloxycoumarin]
[2]; LAL activity toward substrate P-PMHC, tandem mass spectrometry, DBS of Adult 1 (r9) / Adult 2 (r10), triplicate, blank corrected
  Activity without Lalistat-2: 519 µmol/h/L and 539 µmol/h/L and 473 µmol/h/L and 554 µmol/h/L and 582 µmol/h/L
[2]; final assay conditions, 3-mm punch of a DBS from a healthy adult, UPLC-MS/MS
  specific activity: 874 µmol/h/L
[2]; from Lalistat-2 inhibition and LAL-deficient patients, listed as P-PMHC
  specificity of the substrate for LAL in DBS: highly specific for LAL in DBS
[2]; six LAL-deficient patients, UPLC-MS/MS, no Lalistat-2
  LAL activity in DBS of LAL-deficient patients: close to zero
[4]; 3.7 mM substrate stock, 3 hr 37° C.
  substrate activity with DBS as the source of LAL compared to palmitoyl-4MU: more active than palmitoyl-4MU
[4]
  overall ranking in the library (activity and LAL specificity): highest combination of total lipase activity and LAL-specificity
[4]; listed as P-PMHC
  overall ranking in the library (activity and LAL specificity): best combination of high specific activity on LAL and high specificity for LAL

## CCCCCCCC/C=C\CCCCCCCC(=O)OC[C@H](COP(=O)(O)OCCN)OC(=O)CCCCCCC/C=C\CCCCCCCC [1,2-dioleoyl-phosphatidylethanolamine]
[1]
  change of LAL activity over that measured with cardiolipin: None of these phospholipids led to any substantial increase in LAL

## CCCCCCCCCCCC(=O)OC[C@H](COP(=O)([O-])OCC[N+](C)(C)C)OC(=O)CCCCCCCCCCC [1,2-lauryl-phosphatidylcholine]
[1]
  change of LAL activity over that measured with cardiolipin: None of these phospholipids led to any substantial increase in LAL
